According to patent US9131690B2, “Macrocyclic picolinamides as fungicides” (Dow AgroSciences LLC, priority 2012, dated 2015):
Read-outs that look alike come from different tables or passages of the source.

Key:
[1] = system: Puccinia triticina. Synonym: Puccinia recondite f. sp. tritici; test: Fungicidal activity: Wheat Brown Rust (PUCCRT), wheat plants variety Yuma; format: in vivo; parameters: key to PUCCRT 3DC Disease Control: A: 50-100; B: More than 0-Less than 50; C: Not Tested; D: No activity noticed in this bioassay; conditions: for PUCCRT 3DC Disease Control: 100 ppm; for pest or weed control at 100 ppm: Puccinia triticina
Description: Evaluation of Fungicidal Activity: Wheat Brown Rust (Puccinia triticina. Synonym: Puccinia recondite f. sp. tritici; Bayer Code PUCCRT) Wheat plants (variety Yuma) were grown from seed in a greenhouse in 50% mineral soil/50% soil-less Metro mix until the first leaf was fully emerged, with 7-10 seedlings per pot. These plants were inoculated with an aqueous spore suspension of Puccinia recondite f. sp. tritici either prior to or after fungicide treatments. After inoculation the plants were kept in 100% relative humidity overnight to permit spores to germinate and infect the leaf. The plants were then transferred to a greenhouse set at 24 C for disease to develop.

[2] = system: Mycosphaerella graminicola; Anamorph: Septoria tritici; test: Fungicidal activity: Leaf Blotch of Wheat (SEPTTR), wheat plants variety Yuma; format: in vivo; parameters: key to SEPTTR 3DC Disease Control: A: 50-100; B: More than 0-Less than 50; C: Not Tested; D: No activity noticed in this bioassay; conditions: for pest or weed control at 100 ppm: Zymoseptoria tritici
Description: Evaluation of Fungicidal Activity: Leaf Blotch of Wheat (Mycosphaerella graminicola; Anamorph: Septoria tritici; Bayer Code […]) Wheat plants (variety Yuma) were grown from seed in a greenhouse in 50% mineral soil/50% soil-less Metro mix until the first leaf was fully emerged, with 7-10 seedlings per pot. These plants were inoculated with an aqueous spore suspension of Septoria tritici either prior to or after fungicide treatments. After inoculation the plants were kept in 100% relative humidity (one day in a dark dew chamber followed by two to three days in a lighted dew chamber) to permit spores to germinate and infect the leaf. The plants were then transferred to a greenhouse at 20° C. for disease to develop.

[3] = 24 h, 1 Day Protectant, read-out: PUCCRT 1DP Disease Control
[4] = 24 h, 1 Day Protectant, read-out: SEPTTR 1DP Disease Control
[5] = 72 h, 3 Day Curative, read-out: SEPTTR 3DC Disease Control
[6] = 72 h, 3 Day Curative, read-out: PUCCRT 3DC Disease Control

For `COc1ccnc(C(=O)N[C@H]2COC(=O)[C@H](CCOC=O)[C@@H](OC(=O)C(C)C)[C@H](C)OC2=O)c1O` [Compound 51, (3S,6S,7R,8R)-8-(2-(formyloxy)ethyl)-3-(3-hydroxy-4-methoxypicolinamido)-6-methyl-4,9-dioxo-1,5-dioxonan-7-yl isobutyrate], the melting point was 103 to 105 °C, the “PUCCRT 3DC Disease Control” value ([1]; 3 Day Curative) was “D” and the pest or weed control at 100 ppm [1, 3] was 50 to 100%. The pest or weed control at 100 ppm [2, 4] was 0 to 50% and the pest or weed control at 100 ppm [2, 5] was 0 to 50%.
In the case of `COc1ccnc(C(=O)N[C@H]2COC(=O)[C@H](CC(F)F)[C@@H](OC(=O)C(C)C)[C@H](C)OC2=O)c1O` [Compound 52, (3S,6S,7R,8R)-8-(2,2-difluoroethyl)-3-(3-hydroxy-4-methoxypicolinamido)-6-methyl-4,9-dioxo-1,5-dioxonan-7-yl isobutyrate], the melting point is reported as 195 to 196 °C, the pest or weed control at 100 ppm [1, 3] is reported as 50 to 100% and the pest or weed control at 100 ppm [1, 6] is reported as 0 to 50%. For the same compound, the pest or weed control at 100 ppm [2, 4] was 50 to 100% and the pest or weed control at 100 ppm [2, 5] was 0 to 50%.
For `CC[C@H]1C(=O)OC[C@H](NC(=O)c2nccc(OC)c2O)C(=O)O[C@@H](C)[C@@H]1OC(=O)C(C)C` [Compound 53, (3S,6S,7R,8R)-8-ethyl-3-(3-hydroxy-4-methoxypicolinamido)-6-methyl-4,9-dioxo-1,5-dioxonan-7-yl isobutyrate], the melting point was 193 to 195 °C, the “PUCCRT 3DC Disease Control” value ([1]; 3 Day Curative) was “D” and the pest or weed control at 100 ppm [1, 3] was 50 to 100%. For the same compound, the pest or weed control at 100 ppm [2, 4] was 50 to 100% and the pest or weed control at 100 ppm [2, 5] was 0 to 50%.
In the case of `COc1ccnc(C(=O)N[C@H]2COC(=O)[C@H](CCn3cc(-c4cccc(Cl)c4)nn3)[C@@H](OC(=O)C(C)C)[C@H](C)OC2=O)c1O` [Compound 54, (3S,6S,7R,8R)-8-(2-(4-(3-chlorophenyl)-1H-1,2,3-triazol-1-yl)ethyl)-3-(3-hydroxy-4 methoxypicolinamido)-6-methyl-4,9-dioxo-1,5-dioxonan-7-yl isobutyrate], the melting point is reported as 222 to 224 °C, the “PUCCRT 3DC Disease Control” value ([1]; 3 Day Curative) is reported as “D” and the pest or weed control at 100 ppm [1, 3] is reported as 50 to 100%. It also gave a pest or weed control at 100 ppm [2, 4] of 50 to 100% and a pest or weed control at 100 ppm [2, 5] of 0 to 50%.
Work on `COc1ccnc(C(=O)N[C@H]2COC(=O)[C@H](CCn3cc(-c4ccccc4)nn3)[C@@H](OC(=O)C(C)C)[C@H](C)OC2=O)c1O` [Compound 55] yielded a melting point of 222 to 224 °C, a pest or weed control at 100 ppm [1, 3] of 50 to 100% and a pest or weed control at 100 ppm [1, 6] of 0 to 50%. The pest or weed control at 100 ppm [2, 4] was 50 to 100% and the pest or weed control at 100 ppm [2, 5] was 0 to 50%.
For `COc1ccnc(C(=O)N[C@H]2COC(=O)[C@H](CCOS(C)(=O)=O)[C@@H](OC(=O)C(C)C)[C@H](C)OC2=O)c1O` [Compound 56, (3S,6S,7R,8R)-3-(3-hydroxy-4-methoxypicolinamido)-6-methyl-8-(2(methylsulfonyloxy)ethyl)-4,9-dioxo-1,5-dioxonan-7-yl isobutyrate], the melting point was 153 to 155 °C, the pest or weed control at 100 ppm [1, 3] was 50 to 100% and the pest or weed control at 100 ppm [1, 6] was 0 to 50%. It also gave a pest or weed control at 100 ppm [2, 4] of 0 to 50% and a pest or weed control at 100 ppm [2, 5] of 0 to 50%.
For `COc1ccnc(C(=O)N[C@H]2COC(=O)[C@H](CCc3ccccc3)[C@@H](OC(=O)C(C)C)[C@H](C)OC2=O)c1O` [Compound 57, (3S,6S,7R,8R)-3-(3-hydroxy-4-methoxypicolinamido)-6-methyl-4,9-dioxo-8-phenethyl-1,5-dioxonan-7-yl isobutyrate], the melting point was 183 to 184 °C, the pest or weed control at 100 ppm [1, 3] was 50 to 100% and the pest or weed control at 100 ppm [1, 6] was 50 to 100%. For the same compound, the pest or weed control at 100 ppm [2, 4] was 50 to 100% and the pest or weed control at 100 ppm [2, 5] was 0 to 50%.
In the case of `COc1ccnc(C(=O)N[C@H]2COC(=O)[C@H](CCc3ccc(F)cc3)[C@@H](OC(=O)C(C)C)[C@H](C)OC2=O)c1O` [Compound 58], the melting point is reported as 142 to 144 °C, the pest or weed control at 100 ppm [1, 3] is reported as 50 to 100% and the pest or weed control at 100 ppm [1, 6] is reported as 50 to 100%. It also gave a pest or weed control at 100 ppm [2, 4] of 50 to 100% and a pest or weed control at 100 ppm [2, 5] of 0 to 50%.
With `COc1ccnc(C(=O)N[C@H]2COC(=O)[C@H](CCc3cccnc3)[C@@H](OC(=O)C(C)C)[C@H](C)OC2=O)c1O` [Compound 59] the melting point was 169 to 170 °C, the pest or weed control at 100 ppm [1, 3] was 50 to 100% and the pest or weed control at 100 ppm [1, 6] was 0 to 50%. The pest or weed control at 100 ppm [2, 4] was 0 to 50% and the pest or weed control at 100 ppm [2, 5] was 0 to 50%.
With `COc1ccnc(C(=O)N[C@H]2COC(=O)[C@H](CCOCc3ccccc3)[C@@H](OC(=O)C(C)C)[C@H](C)OC2=O)c1O` [Compound 60, (3S,6S,7R,8R)-8-(2-(benzyloxy)ethyl)-3-(3-hydroxy-4-methoxypicolinamido)-6-methyl-4,9-dioxo-1,5-dioxonan-7-yl isobutyrate] the melting point was 139 to 140 °C, the pest or weed control at 100 ppm [1, 3] was 50 to 100% and the pest or weed control at 100 ppm [1, 6] was 50 to 100%. The pest or weed control at 100 ppm [2, 4] was 50 to 100% and the pest or weed control at 100 ppm [2, 5] was 0 to 50%.
For `COc1ccnc(C(=O)N[C@H]2COC(=O)[C@H](CC3CCCCC3)[C@@H](OC(=O)C(C)C)[C@H](C)OC2=O)c1O` [Compound 61, (3S,6S,7R,8R)-8-(cyclohexylmethyl)-3-(3-hydroxy-4-methoxypicolinamido)-6-methyl-4,9-dioxo-1,5-dioxonan-7-yl isobutyrate], the melting point was 188 to 189 °C, the pest or weed control at 100 ppm [1, 3] was 50 to 100% and the pest or weed control at 100 ppm [1, 6] was 0 to 50%. It also gave a pest or weed control at 100 ppm [2, 4] of 50 to 100% and a pest or weed control at 100 ppm [2, 5] of 50 to 100%.
With `CCCCCCC[C@H]1C(=O)OC[C@H](NC(=O)c2nccc(OC)c2O)C(=O)O[C@@H](C)[C@@H]1OC(=O)C(C)C` [Compound 63, (3S,6S,7R,8R)-8-heptyl-3-(3-hydroxy-4-methoxypicolinamido)-6-methyl-4,9-dioxo-1,5-dioxonan-7-yl isobutyrate] the melting point was 131 to 134 °C, the “PUCCRT 3DC Disease Control” value ([1]; 3 Day Curative) was “D” and the pest or weed control at 100 ppm [1, 3] was 50 to 100%. For the same compound, the pest or weed control at 100 ppm [2, 4] was 50 to 100% and the pest or weed control at 100 ppm [2, 5] was 0 to 50%.
Compound `CCC[C@H]1C(=O)OC[C@H](NC(=O)c2nccc(OC)c2O)C(=O)O[C@@H](C)[C@@H]1OC(=O)C(C)C` [Compound 64] has a melting point of 165 to 168 °C, a pest or weed control at 100 ppm [1, 3] of 50 to 100% and a pest or weed control at 100 ppm [1, 6] of 0 to 50%. For the same compound, the pest or weed control at 100 ppm [2, 4] was 50 to 100% and the pest or weed control at 100 ppm [2, 5] was 50 to 100%.
`COc1ccnc(C(=O)N[C@H]2COC(=O)[C@H](CSc3ccccn3)[C@@H](OC(=O)C(C)C)[C@H](C)OC2=O)c1O` [Compound 65, (3S,6S,7R,8R)-3-(3-hydroxy-4-methoxypicolinamido)-6-methyl-4,9-dioxo-8-((pyridin-2-ylthio)methyl)-1,5-dioxonan-7-yl isobutyrate] showed a melting point of 148 to 150 °C, a pest or weed control at 100 ppm [1, 3] of 50 to 100% and a pest or weed control at 100 ppm [1, 6] of 0 to 50%. For the same compound, the pest or weed control at 100 ppm [2, 4] was 50 to 100% and the pest or weed control at 100 ppm [2, 5] was 0 to 50%.
For `COc1ccnc(C(=O)N[C@H]2COC(=O)[C@H](CC3CCCCC3)[C@@H](OC(=O)C(C)C)[C@H](C)OC2=O)c1OC(C)=O` [Compound 66, (3S,6S,7R,8R)-3-(3-acetoxy-4-methoxypicolinamido)-8-(cyclohexylmethyl)-6-methyl-4,9-dioxo-1,5-dioxonan-7-yl isobutyrate], the melting point was 164 to 170 °C, the pest or weed control at 100 ppm [1, 3] was 50 to 100% and the pest or weed control at 100 ppm [1, 6] was 50 to 100%. It also gave a pest or weed control at 100 ppm [2, 4] of 50 to 100% and a pest or weed control at 100 ppm [2, 5] of 50 to 100%.
Compound `COc1ccnc(C(=O)N[C@H]2COC(=O)[C@H](Cc3ccc(C(F)(F)F)cc3)[C@@H](OC(=O)C(C)C)[C@H](C)OC2=O)c1OC(C)=O` [Compound 67] has a melting point of 127 to 134 °C, a pest or weed control at 100 ppm [1, 3] of 50 to 100% and a pest or weed control at 100 ppm [1, 6] of 50 to 100%. The “SEPTTR 3DC Disease Control” value ([2]; 100 ppm, 3 Day Curative) was “D” and the pest or weed control at 100 ppm [2, 4] was 0 to 50%.
`COc1ccnc(C(=O)N[C@H]2COC(=O)[C@H](CCOC(=O)c3ccc(C(F)(F)F)cc3)[C@@H](OC(=O)C(C)C)[C@H](C)OC2=O)c1OC(C)=O` [Compound 68] gave a melting point of 199 to 200 °C, a pest or weed control at 100 ppm [1, 3] of 0 to 50% and a pest or weed control at 100 ppm [1, 6] of 0 to 50%. It also gave a pest or weed control at 100 ppm [2, 4] of 0 to 50% and a pest or weed control at 100 ppm [2, 5] of 0 to 50%.
Compound `CC[C@H]1C(=O)OC[C@H](NC(=O)c2nccc(OC)c2OC(C)=O)C(=O)O[C@@H](C)[C@@H]1OC(=O)C(C)C` [Compound 69] has a melting point of 158 to 161 °C, a pest or weed control at 100 ppm [1, 3] of 50 to 100% and a pest or weed control at 100 ppm [1, 6] of 50 to 100%. The pest or weed control at 100 ppm [2, 4] was 50 to 100% and the pest or weed control at 100 ppm [2, 5] was 50 to 100%.
Compound `COc1ccnc(C(=O)N[C@H]2COC(=O)[C@H](Cc3cccnc3)[C@@H](OC(=O)C(C)C)[C@H](C)OC2=O)c1OC(C)=O` [Compound 70] has a melting point of 151 to 160 °C, a pest or weed control at 100 ppm [1, 3] of 50 to 100% and a pest or weed control at 100 ppm [1, 6] of 50 to 100%. For the same compound, the pest or weed control at 100 ppm [2, 4] was 0 to 50% and the pest or weed control at 100 ppm [2, 5] was 0 to 50%.
